In the supplement of paper PMC11061612:

How the values were obtained:
Experiment in all cases: Bliss excess, mean over the matrix (fraction); higher = more synergy
[1] = test system: SNU-C5 (Colorectal Carcinoma)
Outline: (§1)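 After 24 hours at 37°C and 5% CO2 in 1536-well plates, cells in DMEM/F12 or RPMI plus 10% FBS received two-drug dose matrices for 72 hours. Viability came from CellTiter-Glo 2.0 luminescence and was scaled as inhibition, anchored at 0 by vehicle wells and at 1 by blank wells. Combination Emax is taken as the second-highest inhibition in the matrix, and Bliss excess as the observed combination effect less EA + EB − EA·EB, with EA and EB the single-agent effects.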

[2] = test system: NALM-6 (B-Lymphoblastic Leukemia)
Outline: as §1

[3] = test system: G-292-Clone-A141B1 (Osteosarcoma)
Outline: as §1

[4] = test system: IHH-4 (Thyroid Gland Carcinoma)
Outline: as §1

[5] = test system: LU-99A (Non-Small Cell Lung Carcinoma)
Outline: as §1

[6] = test system: HCC2157 (Breast Carcinoma)
Outline: as §1

[7] = test system: DB (B-Cell Non-Hodgkin's Lymphoma)
Outline: as §1

[8] = test system: SW1088 (Low Grade Glioma)
Outline: as §1

[9] = test system: COR-L23 (Non-Small Cell Lung Carcinoma)
Outline: as §1

NCI-H2595 (Mesothelioma) = test system: NCI-H2595 (Mesothelioma)
Outline: as §1

[10] = test system: CTV-1 (T-Lymphoblastic Leukemia)
Outline: as §1

[11] = test system: SW1990 (Pancreatic Carcinoma)
Outline: as §1

[12] = test system: DOV13 (Ovarian Carcinoma)
Outline: as §1

NCI-H2369 (Mesothelioma) = test system: NCI-H2369 (Mesothelioma)
Outline: as §1

[13] = test system: TE-5 (Esophageal Squamous Cell Carcinoma)
Outline: as §1

[14] = test system: SW780 (Bladder Carcinoma)
Outline: as §1

[15] = test system: MDA-MB-231 (Breast Carcinoma)
Outline: as §1

SN12C (Kidney Carcinoma) = test system: SN12C (Kidney Carcinoma)
Outline: as §1

[16] = test system: KM-H2 (Hodgkin's Lymphoma)
Outline: as §1

[17] = test system: NCI-H1694 (Small Cell Lung Carcinoma)
Outline: as §1

Compound	Bliss excess [1]	Bliss excess [2]	Bliss excess [3]	Bliss excess [4]	Bliss excess [5]	Bliss excess [6]	Bliss excess [7]	Bliss excess [8]	Bliss excess [9]	Bliss excess (NCI-H2595 (Mesothelioma))	Bliss excess [10]	Bliss excess [11]	Bliss excess [12]	Bliss excess (NCI-H2369 (Mesothelioma))	Bliss excess [13]	Bliss excess [14]	Bliss excess [15]	Bliss excess (SN12C (Kidney Carcinoma))	Bliss excess [16]	Bliss excess [17]
Cc1c2c(nn1C)CSCc1cc(n(C)n1)CSc1cc(c3ccccc3c1)OCCCc1c(C(=O)O)n(C)c3c-2c(Cl)ccc13 [AZD5991] + C=CCn1c(=O)c2cnc(Nc3ccc(N4CCN(C)CC4)cc3)nc2n1-c1cccc(C(C)(C)O)n1 [AZD1775] (first compound max 1 µM, partner max 1 µM)	0.0145	-0.0229	-0.0178	0.02	0.017	-0.0438	-0.0165	-0.0307	-0.0079	-0.0127	0.0316	-0.024	-0.038	0.0049	0.0264	0.0046	-0.0812	0.0306	-0.0181	-0.0247
CCc1c2c(nc3ccc(O)cc13)-c1cc3c(c(=O)n1C2)COC(=O)[C@]3(O)CC [SN-38] + CN(C)CCCOc1ccc(-c2ccc3ncc4c(c3c2)n(C2CCOCC2)c(=O)n4C)cn1 [AZD0156] (first compound max 0.3 µM, 7x7, partner max 1 µM)	0.036	0.0336	-0.0508	0.0457	0.0406	0.142	-0.0305	0.0324	0.014	-0.0399	0.0414	-0.0091	-0.0192	-0.0001	0.0124	-0.0475	0.0937	0.011	0.0794	-0.0333
COc1cccc(OCCCN)c1-c1cc(Nc2cnc(C#N)cn2)n[nH]1 [Prexasertib] + O=C(c1cc(Cc2n[nH]c(=O)c3ccccc23)ccc1F)N1CCN(C(=O)C2CC2)CC1 [Olaparib] (first compound max 1 µM, 7x7, partner max 10 µM)	-0.109	-0.0087	-0.0443	-0.0827	-0.0849	-0.0113	-0.0327	-0.0707	0.0116	-0.0053	-0.122	-0.0617	0.0032	-0.0284	0.0048	-0.009	-0.127	-0.0425	-0.0611	-0.0596
COc1cccc(OCCCN)c1-c1cc(Nc2cnc(C#N)cn2)n[nH]1 [Prexasertib] + CN(C)CCCOc1ccc(-c2ccc3ncc4c(c3c2)n(C2CCOCC2)c(=O)n4C)cn1 [AZD0156] (first compound max 1 µM, 7x7, partner max 1 µM)	-0.0292	0.0002	-0.0849	0.0504	0.0172	-0.0366	0.0289	-0.0241	0.0229	-0.0573	-0.0108	-0.0247	-0.0227	-0.0016	0.0016	-0.0232	-0.0306	-0.0387	-0.0337	-0.0433
COc1cccc(OCCCN)c1-c1cc(Nc2cnc(C#N)cn2)n[nH]1 [Prexasertib] + C[C@@H]1COCCN1C2=NC(=NC(=C2)C3(CC3)[S@](=N)(=O)C)C4=C5C=CNC5=NC=C4 [AZD6738] (first compound max 1 µM, 7x7, partner max 10 µM)	-0.0143	-0.0522	0.0477	0.0132	-0.0398	-0.0145	-0.0569	-0.0192	-0.0311	-0.0279	-0.0725	-0.0446	0.0179	-0.0274	0.0203	0.0009	0.0988	0.0012	-0.0214	-0.06
CC1(C)CCC(CN2CCN(c3ccc(C(=O)NS(=O)(=O)c4ccc(NCC5CCOCC5)c([N+](=O)[O-])c4)c(Oc4cnc5[nH]ccc5c4)c3)CC2)=C(c2ccc(Cl)cc2)C1 [Venetoclax] + COc1cc(Nc2ncc3c(n2)-c2ccc(Cl)cc2C(c2c(F)cccc2OC)=NC3)ccc1C(=O)O [Alisertib] (first compound max 1 µM, 7x7, partner max 10 µM)	-0.0682	0.104	-0.0793	-0.0216	-0.0244	0.113	0.124	0.0049	-0.0201	-0.0543	-0.0095	-0.074	0.0303	-0.0739	-0.105	-0.0455	0.0102	-0.0985	0.145	0.256
COc1cc2c(cc1OCCCCCOc1cc3c(cc1OC)C(=O)N1C=C(C)C[C@H]1C=N3)N=C[C@@H]1CC(C)=CN1C2=O [SG3199] + O=C(c1cc(Cc2n[nH]c(=O)c3ccccc23)ccc1F)N1CCN(C(=O)C2CC2)CC1 [Olaparib] (first compound max 0.001 µM, 7x7, partner max 10 µM)	-0.0362	-0.0302	-0.0571	-0.0115	-0.0672	0.0277	-0.0272	-0.0511	0.0285	-0.0437	-0.013	-0.049	-0.0443	-0.035	-0.0665	-0.0497	-0.0808	-0.0697	0.0232	-0.0222
CC1(C)CCC(CN2CCN(c3ccc(C(=O)NS(=O)(=O)c4ccc(NCC5CCOCC5)c([N+](=O)[O-])c4)c(Oc4cnc5[nH]ccc5c4)c3)CC2)=C(c2ccc(Cl)cc2)C1 [Venetoclax] + CN(C)CCCOc1ccc(-c2ccc3ncc4c(c3c2)n(C2CCOCC2)c(=O)n4C)cn1 [AZD0156] (first compound max 1 µM, 7x7, partner max 1 µM)	-0.0123	0.0426	-0.0367	-0.0153	-0.0375	0.0314	-0.0166	-0.0651	-0.0064	0.0103	-0.0103	-0.0056	-0.0231	-0.0298	-0.0248	-0.0031	0.0067	-0.0307	-0.0012	-0.0001
CN(CCO)CC[C@H](CSc1ccccc1)Nc1ccc(S(=O)(=O)NC(=O)c2ccc(N3CCC([C@@H](O)c4ccccc4-c4ccc(Cl)cc4)CC3)cc2)cc1S(=O)(=O)C(F)(F)F [AZD4320] + C=CCn1c(=O)c2cnc(Nc3ccc(N4CCN(C)CC4)cc3)nc2n1-c1cccc(C(C)(C)O)n1 [AZD1775] (first compound max 1 µM, partner max 1 µM)	-0.0062	0.0725	0.0335	0.0051	0.0007	-0.0386	0.0616	0.0064	-0.006	-0.0113	-0.0115	0.0307	0.0352	-0.0413	0.0773	0.0079	0.0551	-0.0099	-0.006	0.0834
CC1(C)CCC(CN2CCN(c3ccc(C(=O)NS(=O)(=O)c4ccc(NCC5CCOCC5)c([N+](=O)[O-])c4)c(Oc4cnc5[nH]ccc5c4)c3)CC2)=C(c2ccc(Cl)cc2)C1 [Venetoclax] + C[C@@H](Nc1cc(F)cc(F)c1)c1cc(C(=O)N(C)C)cc2c(=O)cc(N3CCOCC3)oc12 [AZD8186] (first compound max 1 µM, 7x7, partner max 3 µM)	-0.0308	0.0348	-0.0195	0.0138	-0.0412	0.115	-0.0332	-0.0044	-0.0328	-0.0111	0.0057	-0.0255	-0.0073	-0.0299	-0.0327	-0.0135	-0.0066	-0.0777	-0.0151	0.0808
CCN(CCO)CCCOc1ccc2c(Nc3cc(CC(=O)Nc4cccc(F)c4)[nH]n3)ncnc2c1 [AZD2811] + C[C@@H]1COCCN1C2=NC(=NC(=C2)C3(CC3)[S@](=N)(=O)C)C4=C5C=CNC5=NC=C4 [AZD6738] (first compound max 1 µM, 7x7, partner max 10 µM)	-0.0418	-0.0435	-0.12	-0.0583	-0.0732	-0.0704	-0.0302	-0.103	-0.0192	-0.0491	0.0009	-0.0555	-0.0619	-0.0621	-0.0582	-0.0262	-0.103	-0.0641	-0.0249	-0.0073
Cc1c2c(nn1C)CSCc1cc(n(C)n1)CSc1cc(c3ccccc3c1)OCCCc1c(C(=O)O)n(C)c3c-2c(Cl)ccc13 [AZD5991] + Cc1cc2ncnn2cc1Nc1ncc2c(n1)n(C1CCOCC1)c(=O)n2C [AZD7648] (first compound max 1 µM, 7x7, partner max 10 µM)	-0.0085	-0.0303	-0.0274	-0.0281	-0.0397	0.0283	-0.0087	-0.0665	-0.0076	0.0034	-0.0169	-0.0398	-0.0025	0.0018	-0.0257	-0.0193	-0.0397	-0.0335	0.0203	-0.0059
CN(CCO)CC[C@H](CSc1ccccc1)Nc1ccc(S(=O)(=O)NC(=O)c2ccc(N3CCC([C@@H](O)c4ccccc4-c4ccc(Cl)cc4)CC3)cc2)cc1S(=O)(=O)C(F)(F)F [AZD4320] + CN(C)CCCOc1ccc(-c2ccc3ncc4c(c3c2)n(C2CCOCC2)c(=O)n4C)cn1 [AZD0156] (first compound max 1 µM, 7x7, partner max 1 µM)	0.0125	0.0217	-0.015	-0.022	-0.006	0.009	0.0373	-0.033	-0.0231	-0.0348	-0.0055	-0.0411	-0.0021	-0.036	-0.0135	-0.0392	0.0319	-0.0633	-0.0038	0.0791
Cn1cnc2c(F)c(Nc3ccc(Br)cc3Cl)c(C(=O)NOCCO)cc21 [Selumetinib] + CCN(CCO)CCCOc1ccc2c(Nc3cc(CC(=O)Nc4cccc(F)c4)[nH]n3)ncnc2c1 [AZD2811] (first compound max 10 µM, 7x7, partner max 1 µM)	0.038	0.0318	-0.0367	-0.0209	-0.0383	0.0194	-0.125	-0.0456	0.0428	-0.0185	0.0436	-0.0292	-0.0915	-0.0517	-0.0191	-0.0198	0.0107	-0.0444	-0.0193	0.0136
